{"source": "paper PMC7997369", "about": "“Assessment of the Multifunctional Behavior of Lupin Peptide P7 and Its Metabolite Using an Integrated Strategy” (Journal of Agricultural and Food Chemistry, 2020)", "key": {"[1]": {"test_system": "ACE", "details": "cited from earlier work; for in vitro ACE inhibitory activity at 0.5 mg/mL: hempseed hydrolysate peptides", "method": "(§1) Moreover, when orally administered to spontaneously hypertensive rats (SHRs) at a dose of 30 mg/kg of body weight, LTFPG produces a fast and efficient decrease in systolic blood pressure with a maximum of −37 mmHg after 2 h. […] In particular, these phenomena have been invocated to explain the discrepancy observed between in vitro assays and in vivo results. For example, there are many reports in the literature on the ACE inhibitory activity of different food-derived peptides.[32] In all of these studies, the biochemical characterization is carried out using tests on the purified recombinant ACE enzymes from lung ..."}, "[2]": {"test_system": "spontaneously hypertensive rats (SHRs)", "details": "cited from earlier work", "method": "as §1"}, "[3]": {"test_system": "differentiated Caco-2 cell monolayers", "assay": "Transepithelial transport and metabolism across differentiated Caco-2 cell monolayers", "assay_type": "in vitro ADME, human", "details": "AP solutions of differentiated Caco-2 collected after 120 min; untargeted HPLC–Chip–MS/MS; × = detected", "method": "For differentiation, Caco-2 cells were seeded on polycarbonate filters with a 12 mm diameter and 0.4 μm pore diameter (Transwell, Corning, Inc., Lowell, MA, U.S.A.) at a 3.5 × 10^5 cells/cm^2 density in complete medium supplemented with 10% FBS in both AP and BL compartments for 2 days to allow for the formation of a confluent cell monolayer. Starting from day 3 after seeding, cells were transferred to FBS-free medium in both compartments, supplemented with ITS [final concentration of 10 mg/L insulin (I), 5.5 mg/L transferrin (T), and 6.7 μg/L sodium selenite (S), GIBCO–Invitrogen, San Giuliano Milanese, Italy] only in the BL compartment, and allowed to differentiate for 18–21 days with regular medium changes 3 times weekly.[12]\nThe transepithelial electrical resistance (TEER) of differentiated Caco-2 cells was measured at 37 °C using the voltmeter apparatus Millicell (Millipore Co., Billerica, MA, U.S.A.), immediately before and at the end of the transport experiments. In addition, at the end of transport experiments, cells were incubated from the AP side with 1 mM phenol red in phosphate-buffered saline (PBS) containing Ca^2+ (0.9 mM) and Mg^2+ (0.5 mM) for 1 h at 37 °C, to monitor the paracellular permeability of the cell monolayer. The BL solutions were then collected, and NaOH (70 μL, 0.1 N) was added before reading the absorbance at 560 nm by a microplate reader Synergy H1 from Biotek (Winooski, VT, U.S.A.). Phenol red passage was quantified using a standard phenol red curve. Only filters showing TEER values and phenol red passages similar to untreated control cells were considered for peptide transport analysis.\nPrior to experiments, the cell monolayer integrity and differentiation were checked by TEER measurement as described in detail above. Cells were then washed twice, and peptide transportation by intestinal cells was assayed. Transport experiments were performed in transport buffer solution (137 mM NaCl, 5.36 mM KCl, 1.26 mM CaCl2, 1.1 mM MgCl2, and 5.5 mM glucose) following conditions previously described.[13] To reproduce the pH conditions existing in vivo in the small intestinal mucosa, AP solutions were maintained at pH 6.0 (buffered with 10 mM morpholinoethanesulfonic acid) and BL solutions were maintained at pH 7.4 (buffered with 10 mM N-2-hydroxyethylpiperazine-N-4-[…]). Prior to transport experiments, cells were washed twice with 500 μL of PBS containing Ca^2+ and Mg^2+. Peptide transportation by mature Caco-2 cells was assayed by loading the AP compartment with P7 and/or LTFPG (500 μM) in the AP transport solution (500 μL) and the BL compartment with the BL transport solution (700 μL). The plates were incubated at 37 °C, and the BL solutions were collected at different time points (i.e., 15, 30, 60, 90, and 120 min) and replaced with fresh solutions prewarmed at 37 °C. All BL solutions together with the AP solutions collected at the end of the transport experiment were stored at −80 °C prior to analysis. Three independent transport experiments were performed, each in duplicate.\nQuantitative analysis of P7 in the AP and BL samples were carried out by ion trap mass spectrometry (MS) in multiple reaction monitoring (MRM) mode, monitoring two of the most intense diagnostic transitions, after optimization of the acquisition parameters, such as retention time, MS profile, and tandem mass spectrometry (MS/MS) fragmentation spectrum.[14],[15] All further details regarding liquid chromatography–tandem mass spectrometry (LC–MS/MS) operating conditions and method validations are described in the Supporting Information.\nThe metabolic degradation products deriving from the hydrolytic activity of brush border membrane peptidases were investigated by an untargeted approach (for further details, see the Supporting Information). […]"}}}
{"substance": "FKGRYYP [peptide from meat-derived hydrolysates obtained using thermolysin]", "values": [{"measurement": "IC50", "setting": "[1]; peptides from meat-derived thermolysin hydrolysates, read-out: IC50, in vitro ACE activity", "value": 550, "unit": "nM"}, {"measurement": "effect in vivo on SHRs", "setting": "[2]", "value": "totally ineffective"}]}
{"substance": "IPAGV", "values": [{"measurement": "in vitro ACE inhibitory activity at 0.5 mg/mL", "setting": "[1]", "value": 60.0, "unit": "%"}, {"measurement": "reduction of the BP of SHR", "setting": "[2]", "value": "−40.0", "unit": "mmHg"}]}
{"substance": "SVYT", "values": [{"measurement": "in vitro ACE inhibitory activity at 0.5 mg/mL", "setting": "[1]", "value": 79.0, "unit": "%"}]}
{"substance": "TFPGSAED [AP metabolite of P7 produced by Caco-2 cells, attributed to leucine aminopeptidase]", "values": [{"measurement": "detected at the AP side, P7 tested within a mixture", "setting": "[3]", "value": "×"}]}
